These results are taken from patent US20240366770A1, “DEGRADATION OF BRUTON'S TYROSINE KINASE (BTK) BY CONJUGATION OF BTK INHIBITORS WITH E3 LIGASE LIGAND AND METHODS OF USE” (BeiGene Switzerland GmbH, priority 2021, published 2024).

For one assay, the target named is T1, BTK (Homo sapiens, UniProt Q06187).
T1 construct: High control=Cell group with added DMSO and without compound, indicating microplate readings without BTK degradation; endogenous in cells; host or cells: TMD-8
The assay can be described thus: BTK degradation in TMD-8 cells (HTRF assay). The following applies: 6 h treatment, IC50 (DC50) of BTK degradation. Type of assay: cell-based. An outline of the steps:
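TMD-8 cells were exposed for 6 h to 8 compound doses (6-fold serial dilution, 0.2% DMSO). Lysed cells were incubated overnight at room temperature with HTRF antibodies and read at 665/620 nm. DC50 came from four-parameter fitting of % inhibition versus concentration.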
On the technique in general: Time-resolved FRET reads energy transfer from a long-lived donor to a nearby acceptor.

For the next assay, the system named is HEK-293 cells. Nature of the assay: HEK-293 cytotoxicity detection (CellTiter-Glo). It counts as cell-based. The following applies: HEK-293 cells, 72 h incubation, CellTiter-Glo luminescence, IC50 of cell proliferation inhibition, read-out: HEK293. Put shortly: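 HEK-293 cells exposed 72 h to an 8-point, 4-fold dilution series (top 500× stock 5 mM in DMSO; 0.2% DMSO final). Viability by CellTiter-Glo luminescence after 10 min at room temperature; IC50 from four-parameter Hill fit of percent inhibition.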
A general note: Cellular ATP, detected with luciferase, serves as a proxy for viable cell number.

Like-named read-outs stand apart in the source and are kept apart here.

Broadly, the DC50 is the concentration giving 50% degradation.

T1 sequence (Q06187 whole entry): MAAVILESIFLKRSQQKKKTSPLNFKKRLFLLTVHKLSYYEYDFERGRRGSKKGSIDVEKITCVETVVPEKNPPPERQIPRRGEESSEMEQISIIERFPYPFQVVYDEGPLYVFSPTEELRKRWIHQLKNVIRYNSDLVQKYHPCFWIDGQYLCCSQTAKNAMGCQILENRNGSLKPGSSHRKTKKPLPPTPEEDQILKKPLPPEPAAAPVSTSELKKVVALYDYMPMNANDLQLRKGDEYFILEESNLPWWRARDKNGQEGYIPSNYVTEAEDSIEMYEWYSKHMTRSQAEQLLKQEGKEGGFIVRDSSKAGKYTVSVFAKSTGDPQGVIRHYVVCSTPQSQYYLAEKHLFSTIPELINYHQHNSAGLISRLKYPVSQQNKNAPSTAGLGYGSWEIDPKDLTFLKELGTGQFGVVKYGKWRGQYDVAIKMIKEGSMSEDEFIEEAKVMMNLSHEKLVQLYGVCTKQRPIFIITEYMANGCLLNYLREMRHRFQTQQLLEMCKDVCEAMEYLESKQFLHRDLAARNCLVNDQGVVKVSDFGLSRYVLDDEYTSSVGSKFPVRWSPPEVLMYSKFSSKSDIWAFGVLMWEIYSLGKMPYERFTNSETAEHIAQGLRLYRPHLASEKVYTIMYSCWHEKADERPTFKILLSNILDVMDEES

As to `Cc1c([C@@H](C)NC(=O)c2noc(C(C)(C)C)n2)ccc(-c2ncnc3[nH]c4cc(N5CCN(Cc6cccc7c6C(C)(C)C(=O)N7C6CCC(=O)NC6=O)CC5)ccc4c23)c1F` (stereo partly drawn) [Example 84, 5-(tert-butyl)-N-((1R)-1-(4-(7-(4-((1-(2,6-dioxopiperidin-3-yl)-3,3-dimethyl-2-oxoindolin-4-yl)methyl)piperazin-1-yl)-9H-pyrimido[4,5-b]indol-4-yl)-3-fluoro-2-methylphenyl)ethyl)-1,2,4-oxadiazole-3-carboxamide], it took 8.15 nM to reach half-maximal degradation at BTK (DC50). Moreover, the IC50 in the assay on HEK-293 cells (Homo sapiens) is more than 10000 nM.
Taken in the same sequence, the figures for `Cc1c([C@@H](C)NC(=O)c2noc(C(C)(C)C)n2)ccc(-c2ncnc3[nH]c4cc(N5CCN(Cc6ccc7c(c6)N(C6CCC(=O)NC6=O)C(=O)C7(C)C)CC5)ccc4c23)c1F` (stereo partly drawn) [Example 85, 5-(tert-butyl)-N-((1R)-1-(4-(7-(4-((1-(2,6-dioxopiperidin-3-yl)-3,3-dimethyl-2-oxoindolin-6-yl)methyl)piperazin-1-yl)-9H-pyrimido[4,5-b]indol-4-yl)-3-fluoro-2-methylphenyl)ethyl)-1,2,4-oxadiazole-3-carboxamide] were more than 2000 nM and more than 10000 nM.
The corresponding values for `Cc1c([C@@H](C)NC(=O)c2noc(C(C)(C)C)n2)ccc(-c2ncnc3[nH]c4cc(N5CCN(Cc6ccc7c(c6)C(C)(C)C(=O)N7C6CCC(=O)NC6=O)CC5)ccc4c23)c1F` (stereo partly drawn) [Example 86, 5-(tert-butyl)-N-((1R)-1-(4-(7-(4-((1-(2,6-dioxopiperidin-3-yl)-3,3-dimethyl-2-oxoindolin-5-yl)methyl)piperazin-1-yl)-9H-pyrimido[4,5-b]indol-4-yl)-3-fluoro-2-methylphenyl)ethyl)-1,2,4-oxadiazole-3-carboxamide] are more than 2000 nM and more than 10000 nM.
Taken in the same sequence, the figures for `Cc1c([C@@H](C)NC(=O)c2noc(C(C)(C)C)n2)ccc(-c2ncnc3[nH]c4cc(N5CCN(C6CCN(Cc7ccc8c(c7)n(C7CCC(=O)NC7=O)c(=O)n8C)CC6)CC5)ccc4c23)c1F` (stereo partly drawn) [Example 87, 5-(tert-butyl)-N-((1R)-1-(4-(7-(4-(1-((3-(2,6-dioxopiperidin-3-yl)-1-methyl-2-oxo-2,3-dihydro-1H-benzo[d]imidazol-5-yl)methyl)piperidin-4-yl)piperazin-1-yl)-9H-pyrimido[4,5-b]indol-4-yl)-3-fluoro-2-methylphenyl)ethyl)-1,2,4-oxadiazole-3-carboxamide] were more than 2000 nM and more than 10000 nM.
Compound `Cc1c([C@@H](C)NC(=O)c2noc(C(C)(C)C)n2)ccc(-c2ncnc3[nH]c4cc(N5CCN(Cc6ccc(SC7CCC(=O)NC7=O)cc6)CC5)ccc4c23)c1F` (stereo partly drawn) [Example 88, 5-(tert-butyl)-N-((1R)-1-(4-(7-(4-(4-((2,6-dioxopiperidin-3-yl)thio)benzyl)piperazin-1-yl)-9H-pyrimido[4,5-b]indol-4-yl)-3-fluoro-2-methylphenyl)ethyl)-1,2,4-oxadiazole-3-carboxamide] had a DC50 at BTK of more than 2000 nM. For the same compound, the IC50 with HEK-293 cells (Homo sapiens) is more than 10000 nM.
Taken in the same sequence, the figures for `Cc1cc(-c2ncnc3[nH]c4cc(N5CCN(CC6CCN(c7ccc(N8CCC(=O)NC8=O)cc7)CC6)CC5)ccc4c23)c(F)cc1[C@@H](C)NC(=O)c1nc(C2(C)CC2)no1` [Example 89, (R)—N-(1-(4-(7-(4-((1-(4-(2,4-dioxotetrahydropyrimidin-1(2H)-yl)phenyl)piperidin-4-yl)methyl)piperazin-1-yl)-9H-pyrimido[4,5-b]indol-4-yl)-5-fluoro-2-methylphenyl)ethyl)-3-(1-methylcyclopropyl)-1,2,4-oxadiazole-5-carboxamide] were 0.55 nM and more than 10000 nM.
`Cc1cc(-c2ncnc3[nH]c4cc(N5CCN(C6CC(c7ccc([C@@H]8CCC(=O)NC8=O)cc7)C6)CC5)ccc4c23)c(F)cc1[C@@H](C)NC(=O)c1nc(C2(C)CC2)no1` (stereo partly drawn) [Example 90, N—((R)-1-(4-(7-(4-(3-(4-((S)-2,6-dioxopiperidin-3-yl)phenyl)cyclobutyl)piperazin-1-yl)-9H-pyrimido[4,5-b]indol-4-yl)-5-fluoro-2-methylphenyl)ethyl)-3-(1-methylcyclopropyl)-1,2,4-oxadiazole-5-carboxamide]: the DC50 on BTK was 0.86 nM. Further, the IC50 in the assay on HEK-293 cells (Homo sapiens) was more than 10000 nM.
The compound `Cc1cc(-c2ncnc3[nH]c4cc(N5CCN(Cc6ccc7c(c6)N(C6CCC(=O)NC6=O)C(=O)C76CC6)CC5)ccc4c23)c(F)cc1[C@@H](C)NC(=O)c1noc(C(C)(C)C)n1` (stereo partly drawn) [Example 91, 5-(tert-butyl)-N-((1R)-1-(4-(7-(4-((1′-(2,6-dioxopiperidin-3-yl)-2′-oxospiro[cyclopropane-1,3′-indolin]-6′-yl)methyl)piperazin-1-yl)-9H-pyrimido[4,5-b]indol-4-yl)-5-fluoro-2-methylphenyl)ethyl)-1,2,4-oxadiazole-3-carboxamide] yielded a DC50 at BTK of more than 2000 nM. Also, the IC50 in the assay on HEK-293 cells (Homo sapiens) is more than 10000 nM.
For `COc1cc2c(cc1N1CCN(CCc3ccc(C4(C)CCC(=O)NC4=O)cc3)CC1)[nH]c1ncnc(-c3ccc([C@@H](C)NC(=O)c4nc(C(C)(C)C)no4)c(C)c3)c12` (stereo partly drawn) [Example 92, 3-(tert-butyl)-N-((1R)-1-(4-(6-methoxy-7-(4-(4-(3-methyl-2,6-dioxopiperidin-3-yl)phenethyl)piperazin-1-yl)-9H-pyrimido[4,5-b]indol-4-yl)-2-methylphenyl)ethyl)-1,2,4-oxadiazole-5-carboxamide], the DC50 at BTK was determined as 3.08 nM. Moreover, in the assay with HEK-293 cells (Homo sapiens), the IC50 is more than 10000 nM.
The corresponding values for `COc1cc2c(cc1N1CCN(CC3CCN(c4ccc(N5CCC(=O)NC5=O)cc4)CC3)CC1)[nH]c1ncnc(-c3cc(C)c([C@@H](C)NC(=O)c4nc(C5(C)CC5)no4)cc3F)c12` [Example 93, (R)—N-(1-(4-(7-(4-((1-(4-(2,4-dioxotetrahydropyrimidin-1(2H)-yl)phenyl)piperidin-4-yl)methyl)piperazin-1-yl)-6-methoxy-9H-pyrimido[4,5-b]indol-4-yl)-5-fluoro-2-methylphenyl)ethyl)-3-(1-methylcyclopropyl)-1,2,4-oxadiazole-5-carboxamide] are 2.51 nM and more than 10000 nM.
`COc1cc2c(cc1N1CCN(C3CC(c4ccc(N[C@H]5CCC(=O)NC5=O)cc4)C3)CC1)[nH]c1ncnc(-c3cc(C)c([C@@H](C)NC(=O)c4nc(C5(C)CC5)no4)cc3F)c12` (stereo partly drawn) [Example 94, N—((R)-1-(4-(7-(4-((1S,3s)-3-(4-(((R)-2,6-dioxopiperidin-3-yl)amino)phenyl)cyclobutyl)piperazin-1-yl)-6-methoxy-9H-pyrimido[4,5-b]indol-4-yl)-5-fluoro-2-methylphenyl)ethyl)-3-(1-methylcyclopropyl)-1,2,4-oxadiazole-5-carboxamide]: on BTK, it took 0.768 nM to reach half-maximal degradation (DC50). The IC50 in the assay with HEK-293 cells is 420 nM.
Turning to `COc1cc2c(cc1N1CCN([C@H]3C[C@@H](c4ccc(N[C@H]5CCC(=O)NC5=O)cc4)C3)CC1)[nH]c1ncnc(-c3cc(C)c([C@@H](C)NC(=O)c4nc(C5(C)CC5)no4)cc3F)c12` [Example 95, N—((R)-1-(4-(7-(4-((1R,3s)-3-(4-(((S)-2,6-dioxopiperidin-3-yl)amino)phenyl)cyclobutyl)piperazin-1-yl)-6-methoxy-9H-pyrimido[4,5-b]indol-4-yl)-5-fluoro-2-methylphenyl)ethyl)-3-(1-methylcyclopropyl)-1,2,4-oxadiazole-5-carboxamide], at BTK, half-maximal degradation (DC50) was put at 0.49 nM. Besides, the IC50 in the assay on HEK-293 cells (Homo sapiens) is more than 10000 nM.
Taken in the same sequence, the figures for `Cc1cc(-c2ncnc3[nH]c4cc(N5CCN(C6CC(c7ccc([C@H]8CCC(=O)NC8=O)cc7)C6)CC5)ccc4c23)c(F)cc1[C@@H](C)NC(=O)c1nc(C2(C)CC2)no1` (stereo partly drawn) [Example 96, N—((R)-1-(4-(7-(4-(3-(4-((R)-2,6-dioxopiperidin-3-yl)phenyl)cyclobutyl)piperazin-1-yl)-9H-pyrimido[4,5-b]indol-4-yl)-5-fluoro-2-methylphenyl)ethyl)-3-(1-methylcyclopropyl)-1,2,4-oxadiazole-5-carboxamide] were 2.98 nM and more than 10000 nM.
Taken in the same sequence, the figures for `Cc1c([C@@H](C)NC(=O)c2noc(C(C)(C)C)n2)ccc(-c2ncnc3[nH]c4cc(N5CCN(CC6CCN(Cc7ccc8c(c7)C(C)(C)C(=O)N8C7CCC(=O)NC7=O)CC6)CC5)ccc4c23)c1F` (stereo partly drawn) [Example 98, 5-(tert-butyl)-N-((1R)-1-(4-(7-(4-((1-((1-(2,6-dioxopiperidin-3-yl)-3,3-dimethyl-2-oxoindolin-5-yl)methyl)piperidin-4-yl)methyl)piperazin-1-yl)-9H-pyrimido[4,5-b]indol-4-yl)-3-fluoro-2-methylphenyl)ethyl)-1,2,4-oxadiazole-3-carboxamide] were 1.97 nM and 7280 nM.
Taken in the same sequence, the figures for `Cc1cc(-c2ncnc3[nH]c4cc(N5CCC6(CCN(CC7CCN(c8ccc(N9CCC(=O)NC9=O)cc8)CC7)C6)CC5)ccc4c23)ccc1[C@@H](C)NC(=O)c1nc(C(C)(C)C)no1` [Example 100, (R)-3-(tert-butyl)-N-(1-(4-(7-(2-((1-(4-(2,4-dioxotetrahydropyrimidin-1(2H)-yl)phenyl)piperidin-4-yl)methyl)-2,8-diazaspiro[4.5]decan-8-yl)-9H-pyrimido[4,5-b]indol-4-yl)-2-methylphenyl)ethyl)-1,2,4-oxadiazole-5-carboxamide] were 1.02 nM and 3420 nM.
